# Test results as given in paper PMC11074101 (Cell Discovery, 2024).
# Columns and labels:
# Type in all cases: cell-based
# MCHR2 T198(5.39)A = target: T1, MCHR2 T198(5.39)A (Homo sapiens, UniProt Q969V1, T198A); test: IP-One IP1 accumulation assay, MCHR2 T198A; settings: n = 3 in triplicate
# T1 construct: expressed in transfected cells; host or cells: AD293
# Excerpt: (§1) The gene sequences encoding human MCHR1 (residues 70‒405) and MCHR2 (residues 1‒331, with L256^6.40Y mutation) were subcloned into pFastBac vector (Invitrogen) with an N-terminal haemagglutinin signal peptide (HA) and a thermostabilized BRIL fusion, followed by a C-terminal 15-amino acid linker, a LgBiT subunit and two MBPs to facilitate receptor expression and stability. The Gαi construct was designed with dominant-negative mutations S47N, G203A, A326S, and E245A to decrease the affinity of nucleotide-binding and stable Gαβγ complex. The mini-Gαq construct was designed with the C-terminal α-helix (αH5) of Gαq, which is critical for G protein coupling selectivity. The core of the construct, known as the Ras domain, is derived from Gαs. This design choice was made to enable the binding of the nanobody Nb35, which stabilizes the complex for cryo-EM analysis. […]
# (§2) IP1 accumulation assay was applied for the detection of the downstream Gαq signal of MCHR2 using the IP-One HTRF kit (Cisbio). […] Before measurement, the samples were incubated at RT for 30 min and measured with EnVision multi-plate reader (PerkinElmer).
# (§3) Concentration–response curves were evaluated with a three-parameter logistic equation. The significance was determined with one-way ANOVA with Tukey’s test, and P < 0.05 vs wild type was considered statistically significant.
# MCHR2 Q117(3.36)A = target: T2, MCHR2 Q117(3.36)A (Homo sapiens, UniProt Q969V1, Q117A); test: IP-One IP1 accumulation assay, MCHR2 Q117A; settings: n = 3 in triplicate
# T2 construct: expressed in transfected cells; host or cells: AD293
# Excerpt: as §1, §2, §3
# MCHR1 Q196(3.36)A = target: T3, MCHR1 Q196(3.36)A (Homo sapiens, UniProt Q99705, Q127A); test: GloSensor cAMP assay, MCHR1 Q196A; settings: HEK293, mean ± S.E.M., n = 3 in triplicate
# T3 construct: expressed in transfected cells; host or cells: HEK293
# Excerpt: (§4) The gene sequences encoding human MCHR1 (residues 70‒405) and MCHR2 (residues 1‒331, with L256^6.40Y mutation) were subcloned into pFastBac vector (Invitrogen) with an N-terminal haemagglutinin signal peptide (HA) and a thermostabilized BRIL fusion, followed by a C-terminal 15-amino acid linker, a LgBiT subunit and two MBPs to facilitate receptor expression and stability. The Gαi construct was designed with dominant-negative mutations S47N, G203A, A326S, and E245A to decrease the affinity of nucleotide-binding and stable Gαβγ complex. The mini-Gαq construct was designed with the C-terminal α-helix (αH5) of Gαq, which is critical for G protein coupling selectivity. The core of the construct, known as the Ras domain, is derived from Gαs. This design choice was made to enable the binding of the nanobody Nb35, which stabilizes the complex for cryo-EM analysis. […] Rat Gβ1 was constructed with a N-terminal 16× His-tag for purification and a C-terminal HiBiT to form a NanoBiT with LgBiT. […] The wild-type and mutants of MCHR1 and MCHR2 were constructed into the pcDNA6.0 vector […] for functional assays.
# (§5) GloSensor cAMP assay was used to detect the downstream Gαi signal of MCHR1 using GloSensor cAMP Reagent (Promega).
# MCHR2 Y285(7.32)A = target: T4, MCHR2 Y285(7.32)A (Homo sapiens, UniProt Q969V1, Y285A); test: IP-One IP1 accumulation assay, MCHR2 Y285A; settings: AD293, mean ± S.E.M., n = 3 in triplicate
# T4 construct: expressed in transfected cells; host or cells: AD293
# Excerpt: as §1, §2, §3
# MCHR1 I366(7.39)A = target: T5, MCHR1 I366(7.39)A (Homo sapiens, UniProt Q99705, I297A); test: GloSensor cAMP assay, MCHR1 I366A; settings: HEK293, mean ± S.E.M., n = 3 in triplicate
# T5 construct: expressed in transfected cells; host or cells: HEK293
# Excerpt: as §4, §5
# MCHR1 F161(2.53)A = target: T6, MCHR1 F161(2.53)A (Homo sapiens, UniProt Q99705, F92A); test: GloSensor cAMP assay, MCHR1 F161A; settings: HEK293, mean ± S.E.M., n = 3 in triplicate
# T6 construct: expressed in transfected cells; host or cells: HEK293
# Excerpt: as §4, §5
# MCHR2 I292(7.39)A = target: T7, MCHR2 I292(7.39)A (Homo sapiens, UniProt Q969V1, I292A); test: IP-One IP1 accumulation assay, MCHR2 I292A; settings: n = 3 in triplicate
# T7 construct: expressed in transfected cells; host or cells: AD293
# Excerpt: as §1, §2, §3
# MCHR2 S183(ECL2)A = target: T8, MCHR2 S183(ECL2)A (Homo sapiens, UniProt Q969V1, S183A); test: IP-One IP1 accumulation assay, MCHR2 S183A; settings: AD293, mean ± S.E.M., n = 3 in triplicate
# T8 construct: expressed in transfected cells; host or cells: AD293
# Excerpt: as §1, §2, §3
# MCHR1 D192(3.32)A = target: T9, MCHR1 D192(3.32)A (Homo sapiens, UniProt Q99705, D123A); test: GloSensor cAMP assay, MCHR1 D192A; settings: HEK293, mean ± S.E.M., n = 3 in triplicate
# T9 construct: expressed in transfected cells; host or cells: HEK293
# Excerpt: as §4, §5
# MCHR2 Y267(6.51)A = target: T10, MCHR2 Y267(6.51)A (Homo sapiens, UniProt Q969V1, Y267A); test: IP-One IP1 accumulation assay, MCHR2 Y267A; settings: n = 3 in triplicate
# T10 construct: expressed in transfected cells; host or cells: AD293
# Excerpt: as §1, §2, §3
# MCHR2 L188(ECL2)A = target: T11, MCHR2 L188(ECL2)A (Homo sapiens, UniProt Q969V1, L188A); test: IP-One IP1 accumulation assay, MCHR2 L188A; settings: AD293, mean ± S.E.M., n = 3 in triplicate
# T11 construct: expressed in transfected cells; host or cells: AD293
# Excerpt: as §1, §2, §3
# MCHR1 F256(ECL2)A = target: T12, MCHR1 F256(ECL2)A (Homo sapiens, UniProt Q99705, F187A); test: GloSensor cAMP assay, MCHR1 F256A; settings: HEK293, mean ± S.E.M., n = 3 in triplicate
# T12 construct: expressed in transfected cells; host or cells: HEK293
# Excerpt: as §4, §5
# MCHR1 Y370(7.42)A = target: T13, MCHR1 Y370(7.42)A (Homo sapiens, UniProt Q99705, Y301A); test: GloSensor cAMP assay, MCHR1 Y370A; settings: HEK293, mean ± S.E.M., n = 3 in triplicate
# T13 construct: expressed in transfected cells; host or cells: HEK293
# Excerpt: as §1
# GloSensor cAMP assay was used to detect the downstream Gαi signal of MCHR1 using GloSensor cAMP Reagent (Promega). […] The sample mixtures were immediately measured with an EnVision multi-plate reader (PerkinElmer).
# as §3
# MCHR1 P354(ECL3)A = target: T14, MCHR1 P354(ECL3)A (Homo sapiens, UniProt Q99705, P285A); test: GloSensor cAMP assay, MCHR1 P354A; settings: HEK293, mean ± S.E.M., n = 3 in triplicate
# T14 construct: expressed in transfected cells; host or cells: HEK293
# Excerpt: as §4, §5
# MCHR2 G96(ECL1)A = target: T15, MCHR2 G96(ECL1)A (Homo sapiens, UniProt Q969V1, G96A); test: IP-One IP1 accumulation assay, MCHR2 G96A; settings: n = 3 in triplicate
# T15 construct: expressed in transfected cells; host or cells: AD293
# Excerpt: as §1, §2, §3
# MCHR2 S295(7.42)A = target: T16, MCHR2 S295(7.42)A (Homo sapiens, UniProt Q969V1, S295A); test: IP-One IP1 accumulation assay, MCHR2 S295A; settings: n = 3 in triplicate
# T16 construct: expressed in transfected cells; host or cells: AD293
# Excerpt: as §1, §2, §3
# MCHR2 F177(ECL2)A = target: T17, MCHR2 F177(ECL2)A (Homo sapiens, UniProt Q969V1, F177A); test: IP-One IP1 accumulation assay, MCHR2 F177A; settings: n = 3 in triplicate
# T17 construct: expressed in transfected cells; host or cells: AD293
# Excerpt: as §1, §2, §3
# MCHR2 WT = target: T18, MCHR2 WT (Homo sapiens, UniProt Q969V1); test: IP-One IP1 accumulation assay, MCHR2 WT (Gαq); settings: AD293, IP-One HTRF, mean ± S.E.M.
# T18 construct: expressed in transfected cells; host or cells: AD293
# Excerpt: as §1, §2, §3
# MCHR1 I265(45.52)A = target: T19, MCHR1 I265(45.52)A (Homo sapiens, UniProt Q99705, I196A); test: GloSensor cAMP assay, MCHR1 I265A; settings: HEK293, mean ± S.E.M., n = 3 in triplicate
# T19 construct: expressed in transfected cells; host or cells: HEK293
# Excerpt: as §4, §5
# MCHR1 WT = target: T20, MCHR1 WT (Homo sapiens, UniProt Q99705); test: GloSensor cAMP assay, MCHR1 WT (Gαi); settings: HEK293, GloSensor cAMP, normalized by WT receptor, mean ± S.E.M., n = 3 in triplicate
# T20 construct: expressed in transfected cells; host or cells: HEK293
# Excerpt: as §4, §5
# [1] = AD293, IP-One HTRF, 37 °C 1 h, mean ± S.E.M., P < 0.0001 vs WT
# T18 sequence (Q969V1 whole entry): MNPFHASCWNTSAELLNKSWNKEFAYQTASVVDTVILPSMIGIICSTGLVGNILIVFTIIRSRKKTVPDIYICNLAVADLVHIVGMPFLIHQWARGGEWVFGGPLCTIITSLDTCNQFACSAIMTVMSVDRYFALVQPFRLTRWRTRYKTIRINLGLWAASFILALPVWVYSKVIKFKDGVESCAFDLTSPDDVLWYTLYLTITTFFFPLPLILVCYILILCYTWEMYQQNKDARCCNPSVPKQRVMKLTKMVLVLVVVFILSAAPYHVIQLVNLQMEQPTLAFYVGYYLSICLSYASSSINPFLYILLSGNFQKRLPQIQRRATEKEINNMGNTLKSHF
# T1 sequence (Q969V1 whole entry T198A): as the sequence (Q969V1 whole entry) above, with T198A counted along it
# T10 sequence (Q969V1 whole entry Y267A): as the sequence (Q969V1 whole entry) above, with Y267A counted along it
# T15 sequence (Q969V1 whole entry G96A): as the sequence (Q969V1 whole entry) above, with G96A counted along it
# T2 sequence (Q969V1 whole entry Q117A): as the sequence (Q969V1 whole entry) above, with Q117A counted along it
# T17 sequence (Q969V1 whole entry F177A): as the sequence (Q969V1 whole entry) above, with F177A counted along it
# T7 sequence (Q969V1 whole entry I292A): as the sequence (Q969V1 whole entry) above, with I292A counted along it
# T16 sequence (Q969V1 whole entry S295A): as the sequence (Q969V1 whole entry) above, with S295A counted along it
# T4 sequence (Q969V1 whole entry Y285A): as the sequence (Q969V1 whole entry) above, with Y285A counted along it
# T19 sequence (Q99705 whole entry I196A): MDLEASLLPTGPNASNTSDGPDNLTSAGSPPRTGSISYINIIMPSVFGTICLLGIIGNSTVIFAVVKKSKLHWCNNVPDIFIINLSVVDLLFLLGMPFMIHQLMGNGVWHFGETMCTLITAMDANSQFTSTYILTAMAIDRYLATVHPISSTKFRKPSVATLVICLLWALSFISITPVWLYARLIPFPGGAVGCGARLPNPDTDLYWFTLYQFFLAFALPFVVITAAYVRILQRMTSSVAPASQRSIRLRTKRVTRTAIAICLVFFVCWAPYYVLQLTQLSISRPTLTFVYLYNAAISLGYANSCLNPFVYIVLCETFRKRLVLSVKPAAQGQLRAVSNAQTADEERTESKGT
# T5 sequence (Q99705 whole entry I297A): as the sequence (Q99705 whole entry I196A) above, with A196I, I297A counted along it
# T3 sequence (Q99705 whole entry Q127A): as the sequence (Q99705 whole entry I196A) above, with Q127A, A196I counted along it
# T12 sequence (Q99705 whole entry F187A): as the sequence (Q99705 whole entry I196A) above, with F187A, A196I counted along it
# T11 sequence (Q969V1 whole entry L188A): as the sequence (Q969V1 whole entry) above, with L188A counted along it
# T6 sequence (Q99705 whole entry F92A): as the sequence (Q99705 whole entry I196A) above, with F92A, A196I counted along it
# T20 sequence (Q99705 whole entry): as the sequence (Q99705 whole entry I196A) above, with A196I counted along it
# T13 sequence (Q99705 whole entry Y301A): as the sequence (Q99705 whole entry I196A) above, with A196I, Y301A counted along it
# T14 sequence (Q99705 whole entry P285A): as the sequence (Q99705 whole entry I196A) above, with A196I, P285A counted along it
# T9 sequence (Q99705 whole entry D123A): as the sequence (Q99705 whole entry I196A) above, with D123A, A196I counted along it
# T8 sequence (Q969V1 whole entry S183A): as the sequence (Q969V1 whole entry) above, with S183A counted along it
smiles,measurement,setting,value
"CSCC[C@@H]1NC(=O)[C@@H](NC(=O)[C@H](CCCNC(=N)N)NC(=O)[C@H](CC(C)C)NC(=O)[C@H](CCSC)NC(=O)[C@H](CC(=O)O)NC(=O)[C@H](Cc2ccccc2)NC(=O)[C@@H](N)CC(=O)O)CSSC[C@@H](C(=O)N[C@@H](Cc2c[nH]c3ccccc23)C(=O)N[C@@H](CCC(N)=O)C(=O)N[C@H](C(=O)O)C(C)C)NC(=O)[C@@H]2CCCN2C(=O)[C@H](CCCNC(=N)N)NC(=O)[C@H](Cc2ccc(O)cc2)NC(=O)[C@H](C(C)C)NC(=O)[C@H](CCCNC(=N)N)NC(=O)CNC(=O)[C@H](CC(C)C)NC1=O [MCH, Melanin-concentrating hormone]",EC50,MCHR2 T198(5.39)A; [1],69.2 nM
same,Emax,"MCHR2 T198(5.39)A; AD293, mean ± S.E.M.",93 ± 2%
same,EC50,"MCHR2 Q117(3.36)A; AD293, IP-One HTRF, 37 °C 1 h, mean ± S.E.M., P 0.0352 vs WT",10.7 nM
same,Emax,"MCHR2 Q117(3.36)A; AD293, mean ± S.E.M.",96 ± 2%
same,Emax,MCHR1 Q196(3.36)A,97 ± 1%
same,Emax,MCHR2 Y285(7.32)A,92 ± 2%
same,Emax,MCHR1 I366(7.39)A,90 ± 5%
same,Emax,MCHR1 F161(2.53)A,124 ± 1%
same,EC50,MCHR2 I292(7.39)A; [1],129 nM
same,Emax,"MCHR2 I292(7.39)A; AD293, mean ± S.E.M.",92 ± 2%
same,Emax,MCHR2 S183(ECL2)A,95 ± 1%
same,Emax,MCHR1 D192(3.32)A,40 ± 7%
same,EC50,MCHR2 Y267(6.51)A; [1],200 nM
same,Emax,"MCHR2 Y267(6.51)A; AD293, mean ± S.E.M.",92 ± 1%
same,Emax,MCHR2 L188(ECL2)A,101 ± 1%
same,Emax,MCHR1 F256(ECL2)A,106 ± 2%
same,Emax,MCHR1 Y370(7.42)A,-21 ± 4%
same,Emax,MCHR1 P354(ECL3)A,109 ± 1%
same,EC50,"MCHR2 G96(ECL1)A; AD293, IP-One HTRF, 37 °C 1 h, mean ± S.E.M., P 0.0012 vs WT",15.5 nM
same,Emax,"MCHR2 G96(ECL1)A; AD293, mean ± S.E.M.",96%
same,EC50,MCHR2 S295(7.42)A; [1],234 nM
same,Emax,"MCHR2 S295(7.42)A; AD293, mean ± S.E.M.",81 ± 2%
same,EC50,MCHR2 F177(ECL2)A; [1],3980 nM
same,Emax,"MCHR2 F177(ECL2)A; AD293, mean ± S.E.M.",97 ± 2%
same,EC50,"MCHR2 WT; 37 °C 1 h, three independent experiments in triplicate",3.16 nM
same,Emax,"MCHR2 WT; normalized by WT receptor, n = 3 in triplicate",100%
same,Emax,MCHR1 I265(45.52)A,88 ± 3%
same,Emax,MCHR1 WT,100%
